In patent publication US4889862A, “Freeze-dried pharmaceutical compositions of phenylquinoline carboxylic acids” (E. I. Du Pont de Nemours and Company, priority 1987, dated 1989):

Columns and labels:
L1210 leukemia = assay: In vivo antitumor activity against L1210 leukemia in mice (survival time); set-up: species or system CDF1 mice; L1210 murine leukemia; conditions: for Survival Time: % T/C (mean day of death treated/control × 100): intraperitoneal
Description: Then distilled water (4 ml) was added to the above to make 50 mg/kg solution. Serial two-fold dilutions were made in distilled water from the 50 mg/kg solution for the remaining three concentrations. An unformulated control solution was prepared by dissolving the title compound in distilled water and was used while it remained clear.
The test was carried out as follows. On day 0, CDF1 mice were injected with 1×10^5 L1210 murine leukemia cells intraperitoneally. On day 1 formulated and unformulated title compound were injected intraperitoneally and the injections continued, once daily through day 9. Mice were observed until death.

in vivo = assay: in vivo
Description: A comparative test was performed on the title compound to evaluate possible lethality differences between compositions described herein and compositions prepared by dissolving in water. […] Following compound administration, mortality was evaluated twice daily for 14 days.

Question: What does the source list for `Cc1c(-c2ccc(-c3ccccc3F)cc2)nc2ccc(F)cc2c1C(=O)[O-].[Na+]`?
Answer: Survival Time: % T/C (mean day of death treated/control × 100) (L1210 leukemia; 6.25 mg/kg/day × 9 days): 156%; Survival Time: % T/C (mean day of death treated/control × 100) (L1210 leukemia; 12.5 mg/kg/day × 9 days): 167%; Survival Time: % T/C (mean day of death treated/control × 100) (L1210 leukemia; 25 mg/kg/day × 9 days): 169%; Survival Time: % T/C (mean day of death treated/control × 100) (L1210 leukemia; 50 mg/kg/day × 9 days): 89%; effect of sodium cholate and glycine on antitumor activity (L1210 leukemia; formulated vs unformulated): no effect on the antitumor activity; LD50 at 336 h (in vivo; mouse, in vivo): 156 mg/kg; Slope of the response curve (in vivo; vehicle D.I. H2O, pH = 8.5, single parenteral dose, female mice): 1.18
